Calls of active or inactive are those of the source. No cut-off for these calls is given here.
Legend:
Assay type in all cases: functional, organism-based
Plasmodium chabaudi [1] = assay: Reversal of chloroquine-resistance in Plasmodium chabaudi infected in mouse at 20 mg/kg, po coadministered with chloroquine 3 mg/kg, iv administered for 3 consecutive days measured on day 4
Plasmodium chabaudi [2] = assay: Reversal of chloroquine-resistance in Plasmodium chabaudi infected in mouse at 10 mg/kg, po coadministered with chloroquine 3 mg/kg, iv administered for 3 consecutive days measured on day 4
Plasmodium chabaudi [3] = assay: Antimalarial activity against chloroquine-resistant Plasmodium chabaudi infected in mouse assessed as parasitemia at 10 mg/kg, po administered for 3 consecutive days; parameters: dose 10 mg/kg

SMILES | Activity (Plasmodium chabaudi [1]) | Activity (Plasmodium chabaudi [2]) | Activity (Plasmodium chabaudi [3])
COc1ccc(CCN(C)CCCC(C#N)(c2ccc(OC)c(OC)c2)C(C)C)cc1OC (stereo not drawn) | Active | – | –
Oc1ccc2c3c1O[C@H]1c4[nH]c5ccccc5c4C[C@@]4(O)[C@@H](C2)N(CC2CC2)CC[C@]314 | – | Active | inactive
O=C1/C(=C/c2ccccc2)C[C@@]2(O)[C@H]3Cc4ccc(O)c5c4[C@@]2(CCN3CC2CC2)[C@H]1O5 | – | Active | inactive
Oc1ccc2c3c1O[C@H]1c4[nH]c5c(c4C[C@@]4(O)[C@@H](C2)N(CC2CC2)CC[C@]314)C[C@@]1(O)[C@H]2Cc3ccc(O)c4c3[C@@]1(CCN2CC1CC1)[C@H]5O4 | – | Active | inactive
Oc1ccc2c3c1O[C@H]1c4oc5ccccc5c4C[C@@]4(O)[C@@H](C2)N(CC2CC2)CC[C@]314 | – | Active | Active
CCN(CC)CCCC(C)Nc1ccnc2cc(Cl)ccc12 (stereo not drawn) | – | inactive | inactive
O=C1CC[C@@]2(O)[C@H]3Cc4ccc(O)c5c4[C@@]2(CCN3CC2CC2)[C@H]1O5 | – | Active | inactive
